Article PMC6550521, “Stress-Induced Changes in the Lipid Microenvironment of β-(1,3)-D-Glucan Synthase Cause Clinically Important Echinocandin Resistance in Aspergillus fumigatus” (mBio, 2019)

Experiments:
A. fumigatus ATCC 13073 [1] = assay: Antifungal susceptibility testing (MEC, CLSI M38-A2); format: cell-based, Aspergillus fumigatus
Experimental: (§1) Minimum effective concentrations (MECs) for A. fumigatus strains were determined according to CLSI document M38-A2 ([48]) and defined as the lowest drug concentration that led to the growth of small, rounded, compact hyphal forms compared to the hyphal growth seen in the drug-free growth control wells. The following drugs (supplier) were tested: caspofungin (Merck & Co., Inc.), micafungin (Astellas Pharma US, Inc.), anidulafungin (Pfizer Inc.), itraconazole (Sigma-Aldrich), voriconazole (Pfizer Inc.), and amphotericin B (Sigma-Aldrich). In addition, rezafungin and ibrexafungerp were obtained from Cidara Therapeutics and Scynexis Inc., respectively.

[2] = system: A. fumigatus S679P (fks1 Ser-679-Pro mutant); assay: as above; format: cell-based, Aspergillus fumigatus; details: S679P, fks1 Ser-679-Pro
Experimental: as §1

[3] = target: β-(1,3)-D-glucan synthase of RG101 (Aspergillus fumigatus, UniProt Q4WLT4); assay: Glucan synthase kinetic inhibition assay, enzyme from RG101; format: biochemical
Experimental: ATCC 13073 or RG101 was grown in liquid YPD medium at 37°C for 16 h. Partially purified glucan synthase was isolated by the product entrapment method, as previously described ([21]). Sensitivity to echinocandin drugs was measured by glucan synthase assay, using a 96-well multiscreen high-throughput screen filtration system (Millipore Corporation, Bedford, MA) in a final volume of 100 μl. Inhibition of the enzyme by the drug was analyzed after incubation of the enzyme with a radioactive substrate over a broad range of concentrations (0 to 10,000 ng/ml) of echinocandins for 1 h at room temperature. Radioactivity from the enzyme product, β-(1,3)-D-glucan, was measured. Inhibition profiles were determined using a sigmoidal response curve fitting algorithm with GraphPad Prism software (v 7.04).
To study the effect of lipids on the enzyme, dihydrosphingosine, phytosphingosine, or phytoceramide C2 (Sigma-Aldrich D6783, P2795, and C8105, respectively) was added directly to the assay mixture and coincubated with an echinocandin for 1 h at room temperature.

[4] = system: reactive oxygen species (ROS) in A. fumigatus ATCC 13073; assay: ROS production, DCFDA fluorescence assay; format: cell-based, Aspergillus fumigatus; details: 1 μg/ml, 1 h exposure, compared with other echinocandins
Experimental: (§2) ROS production in mycelia was measured using a protocol previously described by Blatzer et al. ([51]) with a few changes. Suspensions of 10^4 spores/ml of ATCC 13073 and RG101 were grown in static culture in complete supplement mixture (CSM) medium for 16 h in a 96-well microplate at 37°C. After incubation, the mycelia were washed once with CSM, 10 μM 2′,7′–dichlorofluorescin diacetate (DCFDA) dye was added, and cells were incubated in the dark at 37°C for 30 min. Cells were then washed three times with phosphate-buffered saline (PBS), and a final concentration of 1 μg/ml of each echinocandin in CSM medium was added to different wells. Fluorescence intensity (excitation at 485 nm and emission at 530 nm) was measured for 1 h in a microplate reader (Tecan Infinite M200 Pro). Mycelia stained with DCFDA without any drug were used as a control.

[5] = system: reactive oxygen species (ROS) in A. fumigatus RG101; assay: ROS production, DCFDA fluorescence assay; format: cell-based, Aspergillus fumigatus; details: 1 μg/ml, 1 h exposure, DCFDA, compared with other echinocandins
Experimental: as §2

A. fumigatus ATCC 13073 [6] = assay: Electron microscopy (SEM, TEM) of cell wall ultrastructure; format: cell-based, Aspergillus fumigatus; details: CAS 4 μg/ml, 16 h, SEM and TEM
Experimental: (§3) Scanning electron microscopy (SEM) and transmission electron microscopy (TEM) methods were followed as described previously ([49]) and in Text S1.
(§4) For SEM, mycelia of ATCC 13073 and RG101 were grown in the absence and presence of CAS (4 µg/mL) and were fixed with 2.5% (v/v) glutaraldehyde in 0.1 M cacodylate buffer (pH 7.4) at room temperature for 3 h. After being washed with 0.1 M cacodylate buffer, specimens were post-fixed for 1 h with 1% osmium tetroxide in 0.1 M cacodylate buffer (pH 7.4) at 4 °C. Samples were dehydrated in graded ethanol, and then critical point dried in liquid carbon dioxide and sputter-coated with a thin layer of palladium–gold. Observations were carried out using Hitachi S-3400 N scanning electron microscope.
(§5) For TEM, cultures were fixed with 2.5% (v/v) glutaraldehyde solution as described above. They were then post-fixed for 1 h with 1% (w/v) osmium tetroxide in 0.1 M cacodylate buffer (pH 7.4) at 4 °C. After three wash steps in buffer, specimens were dehydrated in a series of graded ethanol and embedded in Embed 812. Thin sections were stained with uranyl acetate followed by lead nitrate and examined in a Hitachi H-7500 electron microscope operated at 100 KV.

A. fumigatus RG101 = assay: as above; format: cell-based, Aspergillus fumigatus; details: CAS 4 μg/ml, 16 h, SEM and TEM
Experimental: as §3, §4, §5

[7] = system: cell wall glucan and chitin of RG101; assay: Cell wall carbohydrate analysis (mass spectrometry, calcofluor white); format: cell-based, Aspergillus fumigatus; details: CAS 4 μg/ml
Experimental: Strains ATCC 13073 and RG101 were grown in the absence and presence of CAS (4 μg/ml) in 6-well microtiter plates containing yeast extract-peptone-dextrose (YPD) broth for 22 h at 37°C. The cells were then lysed using a French press. The broken cell wall sample was processed for chemical analysis using mass spectrometry at the Complex Carbohydrate Research Center (CCRC) at the University of Georgia, Athens, GA.

β-(1,3)-D-glucan synthase of RG101, sequence (Q4WLT4 1-1904): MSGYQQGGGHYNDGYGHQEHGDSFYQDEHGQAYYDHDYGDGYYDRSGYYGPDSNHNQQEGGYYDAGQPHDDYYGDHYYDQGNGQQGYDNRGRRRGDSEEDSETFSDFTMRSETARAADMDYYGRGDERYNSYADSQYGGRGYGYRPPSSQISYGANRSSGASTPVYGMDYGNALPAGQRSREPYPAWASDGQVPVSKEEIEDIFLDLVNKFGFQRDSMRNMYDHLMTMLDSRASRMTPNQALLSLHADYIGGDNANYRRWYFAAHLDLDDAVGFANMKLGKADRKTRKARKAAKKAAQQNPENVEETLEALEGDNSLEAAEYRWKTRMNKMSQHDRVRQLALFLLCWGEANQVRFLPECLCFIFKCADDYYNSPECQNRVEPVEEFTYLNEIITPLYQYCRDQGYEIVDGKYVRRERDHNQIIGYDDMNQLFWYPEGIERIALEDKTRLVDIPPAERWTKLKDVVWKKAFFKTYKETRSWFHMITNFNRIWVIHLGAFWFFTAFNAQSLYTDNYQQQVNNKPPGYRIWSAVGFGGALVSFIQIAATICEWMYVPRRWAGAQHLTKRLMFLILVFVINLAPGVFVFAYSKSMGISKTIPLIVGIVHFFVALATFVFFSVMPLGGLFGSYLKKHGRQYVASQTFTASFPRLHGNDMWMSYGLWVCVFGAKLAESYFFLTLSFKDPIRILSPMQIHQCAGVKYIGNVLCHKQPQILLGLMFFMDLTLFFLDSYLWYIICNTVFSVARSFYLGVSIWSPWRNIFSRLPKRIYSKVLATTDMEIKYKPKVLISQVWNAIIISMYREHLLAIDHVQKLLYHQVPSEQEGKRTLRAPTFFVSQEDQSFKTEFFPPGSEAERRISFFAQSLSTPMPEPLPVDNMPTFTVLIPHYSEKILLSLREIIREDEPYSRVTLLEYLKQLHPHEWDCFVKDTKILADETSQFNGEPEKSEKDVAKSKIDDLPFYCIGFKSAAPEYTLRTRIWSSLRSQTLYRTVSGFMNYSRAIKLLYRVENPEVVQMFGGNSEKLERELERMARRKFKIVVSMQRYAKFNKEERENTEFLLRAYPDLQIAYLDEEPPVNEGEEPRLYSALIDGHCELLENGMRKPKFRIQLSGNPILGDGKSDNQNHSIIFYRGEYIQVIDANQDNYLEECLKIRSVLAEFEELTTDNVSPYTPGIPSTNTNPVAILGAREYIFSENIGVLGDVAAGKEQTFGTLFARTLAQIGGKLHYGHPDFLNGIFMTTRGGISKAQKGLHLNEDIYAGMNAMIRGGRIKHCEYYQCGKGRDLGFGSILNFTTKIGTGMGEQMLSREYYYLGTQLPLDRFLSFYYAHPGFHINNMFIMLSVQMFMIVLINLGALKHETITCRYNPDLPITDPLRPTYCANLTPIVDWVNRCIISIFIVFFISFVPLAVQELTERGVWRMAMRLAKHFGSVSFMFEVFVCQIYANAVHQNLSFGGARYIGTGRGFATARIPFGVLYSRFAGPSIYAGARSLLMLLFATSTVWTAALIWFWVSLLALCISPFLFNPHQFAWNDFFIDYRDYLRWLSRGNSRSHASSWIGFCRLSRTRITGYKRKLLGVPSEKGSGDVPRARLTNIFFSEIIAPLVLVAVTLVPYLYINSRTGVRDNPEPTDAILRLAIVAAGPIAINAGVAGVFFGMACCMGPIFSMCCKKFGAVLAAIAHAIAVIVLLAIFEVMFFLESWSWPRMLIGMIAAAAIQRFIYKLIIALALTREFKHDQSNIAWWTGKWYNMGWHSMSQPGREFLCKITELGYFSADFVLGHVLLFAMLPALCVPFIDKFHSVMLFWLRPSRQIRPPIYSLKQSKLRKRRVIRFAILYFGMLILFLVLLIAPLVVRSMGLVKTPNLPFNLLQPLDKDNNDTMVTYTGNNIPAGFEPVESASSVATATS

CC[C@H](C)C[C@H](C)CCCCCCCCC(=O)N[C@H]1C[C@@H](O)[C@@H](NCCN)NC(=O)[C@@H]2[C@@H](O)CCN2C(=O)[C@H]([C@H](O)CCN)NC(=O)[C@H]([C@H](O)[C@@H](O)c2ccc(O)cc2)NC(=O)[C@@H]2C[C@@H](O)CN2C(=O)[C@H]([C@@H](C)O)NC1=O [CAS, caspofungin]
Drug susceptibility testing result, ATCC 13073 (A. fumigatus ATCC 13073 [1]; 24 h, Fig 1B): 0.12 µg/mL
MEC (minimum effective concentration) (A. fumigatus ATCC 13073 [1]; ATCC 13073, fks1 WT): 0.12 µg/mL
MEC (minimum effective concentration) [2]: 16 µg/mL
Loss of sensitivity (IC50 shift) of glucan synthase from RG101 grown with CAS versus without ([3]; RG101 grown in presence vs absence of CAS): 4 log orders
IC50 ([3]; enzyme from RG101 grown at 4 μg/ml CAS): > 9.15 µM
ROS levels induced in ATCC 13073 [4]: highest levels
ROS levels induced in RG101 [5]: highest levels
Cell wall ultrastructure of ATCC 13073 grown in the presence of CAS (A. fumigatus ATCC 13073 [6]): extensive damage
Cell wall ultrastructure of RG101 grown in the presence of CAS (A. fumigatus RG101): did not show any ultrastructural cell wall damage
Chitin levels in RG101 upon CAS exposure ([7]; MS and calcofluor white): no significant increase
Cell wall glucan content in RG101 treated with CAS ([7]; mass spectroscopy): no reduction
